Earlier results in patent US20100125094A1, “PY[…] NICOTINIC ACETYLCHOLINE RECEPTORS” (AUSPEX PHARMACEUTICALS, INC., priority 2008, published 2010).

CN1CCCC1c1cccnc1 (centres unmarked) [Nicotine, 3-(1-methyl-pyrrolidin-2-yl)-pyridine]
half life of nicotine in the body (in the body): around two
time for nicotine to reach the brain (when inhaled, on average): about seven
